US6274715A, “Tricyclic erythromycin derivatives” (priority 1997, dated 2001)
In brackets after ≈: the same amount, converted by molar mass.

Key:
Assay type in all cases: cell-based
ESCHERICHIA COLI JUHL = conditions: E. coli JUHL; BHI agar; unit assumed
[1] = test system: PSEUDOMONAS AERUGINOSA DPHD-5263; test: In vitro antibacterial activity, MIC, BHI agar dilution; conditions: P. aeruginosa DPHD-5263, unit assumed
[2] = test system: PSEUDOMONAS AERUGINOSA K799/WT; test: as above; conditions: P. aeruginosa K799/WT, unit assumed
ESCHERICHIA COLI SS = test: as above; conditions: E. coli SS, unit assumed
CANDIDA ALBICANS CCH 442 = test: as above; conditions: C. albicans CCH 442, unit assumed
[3] = test system: STREPTOCOCCUS BOVIS A-5169; test: as above; conditions: S. bovis A-5169, unit assumed
M[…] ATCC 9341 = test: as above; conditions: M. luteus ATCC 9341, unit assumed
In short: (§1)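 BHI agar dilution: twelve plates with successive compound dilutions, inoculated by replicator with 1:100 culture dilutions (1:10 for slow growers such as Micrococcus and Streptococcus), 20 to 24 hours at 35-37° C. MIC was the lowest concentration giving no growth, slight haze or sparse isolated colonies versus drug-free control; erythromycin A as class reference.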

STR[…] 508 = test: as above; conditions: S. agalactiae CMX 508, unit assumed
In short: as §1

M[…] ATCC 4698 = test: as above; conditions: M. luteus ATCC 4698, unit assumed
In short: as §1

EN[…] ATCC 8043 = test: as above; conditions: E. faecium ATCC 8043, unit assumed
In short: as §1

[4] = test system: MYCOBACTERIUM SMEGMATIS ATCC 114; test: as above; conditions: M. smegmatis ATCC 114, unit assumed
[5] = test system: STAPHYLOCOCCUS AUREUS CMX 642A; test: as above; conditions: S. aureus CMX 642A, unit assumed
[6] = test system: STAPHYLOCOCCUS AUREUS CMX 553; test: as above; conditions: S. aureus CMX 553, unit assumed
[7] = test system: STREPTOCOCCUS PYOGENES PIU 2548; test: as above; conditions: S. pyogenes PIU 2548, unit assumed
[8] = test system: STAPHYLOCOCCUS AUREUS A-5278; test: as above; conditions: S. aureus A-5278, unit assumed
[9] = test system: PSEUDOMONAS AERUGINOSA BMH10; test: as above; conditions: P. aeruginosa BMH10, unit assumed
[10] = test system: STAPHYLOCOCCUS AUREUS ATCC 6538P; test: as above; conditions: S. aureus ATCC 6538P, 35-37° C., 20 to 24 hours, unit assumed
ESCHERICHIA COLI DC-2 = test: as above; conditions: E. coli DC-2, unit assumed
[11] = test system: PSEUDOMONAS AERUGINOSA DPHD-2862; test: as above; conditions: P. aeruginosa DPHD-2862, unit assumed
[12] = test system: STAPHYLOCOCCUS EPIDERMIDIS 3519; conditions: S. epidermidis 3519; BHI agar; unit assumed
ESCHERICHIA COLI KNK 437 = conditions: E. coli KNK 437; BHI agar; unit assumed
[13] = test system: ENTEROBACTER AEROGENES ATCC 13048; test: In vitro antibacterial activity, MIC, BHI agar dilution; conditions: E. aerogenes ATCC 13048, unit assumed
ESCHERICHIA COLI H560 = test: as above; conditions: E. coli H560, unit assumed
PSEUDOMONAS CEPACIA 296I = test: as above; conditions: P. cepacia 296I, unit assumed
[14] = test system: STAPHYLOCOCCUS AUREUS A5177; test: as above; conditions: S. aureus A5177, unit assumed
[15] = test system: KLEBSIELLA PNEUMONIAE ATCC 8045; test: as above; conditions: K. pneumoniae ATCC 8045, unit assumed
[16] = test system: STAPHYLOCOCCUS AUREUS 1775; test: as above; conditions: S. aureus 1775, unit assumed
[17] = test system: STAPHYLOCOCCUS AUREUS NCTC10649M; test: as above; conditions: S. aureus NCTC10649M, unit assumed
[18] = test system: PSEUDOMONAS AERUGINOSA 5007; test: as above; conditions: P. aeruginosa 5007, unit assumed
[19] = test system: STREPTOCOCCUS PYOGENES EES61; test: as above; conditions: S. pyogenes EES61, unit assumed
[20] = test system: PROVIDENCIA STUARTII CMX 640; conditions: P. stuartii CMX 640; BHI agar; unit assumed
[21] = test system: STREPTOCOCCUS PYOGENES 930; test: In vitro antibacterial activity, MIC, BHI agar dilution; conditions: S. pyogenes 930, unit assumed
[22] = test system: PSEUDOMONAS AERUGINOSA K799/61; test: as above; conditions: P. aeruginosa K799/61, unit assumed

Compound | MIC (ESCHERICHIA COLI JUHL) | MIC [1] | MIC [2] | MIC (ESCHERICHIA COLI SS) | MIC (CANDIDA ALBICANS CCH 442) | MIC [3] | MIC (M[…] ATCC 9341) | MIC (STR[…] 508) | MIC (M[…] ATCC 4698) | MIC (EN[…] ATCC 8043) | MIC [4] | MIC [5] | MIC [6] | MIC [7] | MIC [8] | MIC [9] | MIC (ESCHERICHIA COLI DC-2) | MIC [11] | MIC [12] | MIC (ESCHERICHIA COLI KNK 437) | further results
CC[C@H]1OC(=O)[C@H](C)C(=O)[C@H](C)[C@@H](O[C@@H]2O[C@H](C)C[C@H](N(C)C)[C@H]2O)[C@](C)(OC)C[C@@H](C)C2=NC[C@H](C)N3C(=O)O[C@@]1(C)[C@H]3[C@H]2C [Example 8] | 100 µg/mL (≈ 153 µM) | > 100 µg/mL | 100 µg/mL (≈ 153 µM) | 0.78 µg/mL (≈ 1.2 µM) | > 100 µg/mL | 0.1 µg/mL (≈ 0.153 µM) | 1.56 µg/mL (≈ 2.39 µM) | 0.1 µg/mL (≈ 0.153 µM) | 1.56 µg/mL (≈ 2.39 µM) | 0.78 µg/mL (≈ 1.2 µM) | 6.2 µg/mL (≈ 9.51 µM) | 0.78 µg/mL (≈ 1.2 µM) | 0.78 µg/mL (≈ 1.2 µM) | 0.78 µg/mL (≈ 1.2 µM) | > 100 µg/mL | 100 µg/mL (≈ 153 µM) | 50 µg/mL (≈ 76.7 µM) | > 100 µg/mL | 0.78 µg/mL (≈ 1.2 µM) | 100 µg/mL (≈ 153 µM) | MIC [10]: 0.78 µg/mL (≈ 1.2 µM); MIC [13]: 100 µg/mL (≈ 153 µM); MIC (ESCHERICHIA COLI H560): 25 µg/mL (≈ 38.4 µM); MIC (PSEUDOMONAS CEPACIA 296I): > 100 µg/mL; MIC [14]: 0.78 µg/mL (≈ 1.2 µM); MIC [15]: 100 µg/mL (≈ 153 µM); MIC [16]: > 100 µg/mL; MIC [17]: 0.78 µg/mL (≈ 1.2 µM); MIC [18]: > 100 µg/mL; MIC [19]: 0.1 µg/mL (≈ 0.153 µM); MIC [20]: > 100 µg/mL; MIC [21]: > 100 µg/mL
CC[C@H]1OC(=O)[C@H](C)C(=O)[C@H](C)[C@@H](O[C@@H]2O[C@H](C)C[C@H](N(C)C)[C@H]2O)[C@](C)(OC)C[C@@H](C)C2=N[C@@H](C)[C@H](C)N3C(=O)O[C@@]1(C)[C@H]3[C@H]2C [Example 11] | 25 µg/mL (≈ 37.5 µM) | > 100 µg/mL | > 100 µg/mL | 0.39 µg/mL (≈ 0.586 µM) | > 100 µg/mL | 0.01 µg/mL (≈ 0.015 µM) | 0.2 µg/mL (≈ 0.3 µM) | 0.05 µg/mL (≈ 0.0751 µM) | 0.39 µg/mL (≈ 0.586 µM) | 0.1 µg/mL (≈ 0.15 µM) | 6.2 µg/mL (≈ 9.31 µM) | 0.39 µg/mL (≈ 0.586 µM) | 0.39 µg/mL (≈ 0.586 µM) | 0.39 µg/mL (≈ 0.586 µM) | > 100 µg/mL | > 100 µg/mL | 25 µg/mL (≈ 37.5 µM) | > 100 µg/mL | 0.39 µg/mL (≈ 0.586 µM) | 25 µg/mL (≈ 37.5 µM) | MIC [10]: 0.39 µg/mL (≈ 0.586 µM); MIC [13]: 25 µg/mL (≈ 37.5 µM); MIC (ESCHERICHIA COLI H560): 6.2 µg/mL (≈ 9.31 µM); MIC (PSEUDOMONAS CEPACIA 296I): > 100 µg/mL; MIC [14]: 0.39 µg/mL (≈ 0.586 µM); MIC [15]: 12.5 µg/mL (≈ 18.8 µM); MIC [16]: > 100 µg/mL; MIC [17]: 0.39 µg/mL (≈ 0.586 µM); MIC [18]: > 100 µg/mL; MIC [19]: 0.005 µg/mL (≈ 0.00751 µM); MIC [20]: > 100 µg/mL; MIC [21]: > 100 µg/mL
C=CCN1CC2N=C3[C@H](C)C[C@@](C)(OC)[C@H](O[C@@H]4O[C@H](C)C[C@H](N(C)C)[C@H]4O)[C@@H](C)C(=O)[C@@H](C)C(=O)O[C@H](CC)[C@@]4(C)OC(=O)N(C2C1)[C@@H]4[C@H]3C (stereo partly shown) [Example 116] | 50 µg/mL (≈ 69.5 µM) | > 100 µg/mL | > 100 µg/mL | 0.39 µg/mL (≈ 0.542 µM) | > 100 µg/mL | ≤ 0.005 µg/mL | 0.2 µg/mL (≈ 0.278 µM) | 0.05 µg/mL (≈ 0.0695 µM) | 0.39 µg/mL (≈ 0.542 µM) | 0.2 µg/mL (≈ 0.278 µM) | 1.56 µg/mL (≈ 2.17 µM) | 0.78 µg/mL (≈ 1.08 µM) | 0.78 µg/mL (≈ 1.08 µM) | 0.78 µg/mL (≈ 1.08 µM) | > 100 µg/mL | 100 µg/mL (≈ 139 µM) | 100 µg/mL (≈ 139 µM) | > 100 µg/mL | 0.78 µg/mL (≈ 1.08 µM) | > 100 µg/mL | MIC [10]: 0.78 µg/mL (≈ 1.08 µM); MIC [13]: > 100 µg/mL; MIC (ESCHERICHIA COLI H560): 50 µg/mL (≈ 69.5 µM); MIC (PSEUDOMONAS CEPACIA 296I): > 100 µg/mL; MIC [14]: 0.78 µg/mL (≈ 1.08 µM); MIC [22]: 3.1 µg/mL (≈ 4.31 µM); MIC [15]: > 100 µg/mL; MIC [16]: > 100 µg/mL; MIC [17]: 0.39 µg/mL (≈ 0.542 µM); MIC [18]: > 100 µg/mL; MIC [20]: > 100 µg/mL; MIC [21]: > 100 µg/mL
CCOC(=O)CCN1CC2N=C3C(C)CC(C)(OC)C(OC4OC(C)CC(N(C)C)C4O)C(C)C(=O)C(C)C(=O)OC(CC)C4(C)OC(=O)N(C2C1)C4C3C (stereo not shown) [Example 130] | > 100 µg/mL | > 100 µg/mL | > 100 µg/mL | 0.78 µg/mL (≈ 1 µM) | > 100 µg/mL | 0.1 µg/mL (≈ 0.128 µM) | 0.2 µg/mL (≈ 0.257 µM) | 0.1 µg/mL (≈ 0.128 µM) | 0.78 µg/mL (≈ 1 µM) | 0.2 µg/mL (≈ 0.257 µM) | 25 µg/mL (≈ 32.1 µM) | 1.56 µg/mL (≈ 2 µM) | 1.56 µg/mL (≈ 2 µM) | 6.2 µg/mL (≈ 7.96 µM) | > 100 µg/mL | > 100 µg/mL | > 100 µg/mL | > 100 µg/mL | 3.1 µg/mL (≈ 3.98 µM) | > 100 µg/mL | MIC [13]: > 100 µg/mL; MIC (ESCHERICHIA COLI H560): > 100 µg/mL; MIC (PSEUDOMONAS CEPACIA 296I): > 100 µg/mL; MIC [14]: 0.78 µg/mL (≈ 1 µM); MIC [22]: 3.1 µg/mL (≈ 3.98 µM); MIC [15]: > 100 µg/mL; MIC [16]: > 100 µg/mL; MIC [18]: > 100 µg/mL; MIC [19]: 0.1 µg/mL (≈ 0.128 µM); MIC [20]: > 100 µg/mL; MIC [21]: > 100 µg/mL
